{"source": "patent US7358057B2", "about": "“QM-7 and QT-6 cells transfected with mutant cell surface expressed channel receptors and assays using the transfected cells” (Memory Pharmaceuticals Corporation, priority 2002, dated 2008)", "key": {"[1]": {"biological_target": "T1, L270T mutant α7 receptor (Homo sapiens, UniProt P36544, L270T)", "T1 construct": "expressed in transfected cells; host or cells: QM-7 cells (quail), transient transfection with Lipofectamine PLUS", "T1 sequence (P36544 23-502 L270T)": "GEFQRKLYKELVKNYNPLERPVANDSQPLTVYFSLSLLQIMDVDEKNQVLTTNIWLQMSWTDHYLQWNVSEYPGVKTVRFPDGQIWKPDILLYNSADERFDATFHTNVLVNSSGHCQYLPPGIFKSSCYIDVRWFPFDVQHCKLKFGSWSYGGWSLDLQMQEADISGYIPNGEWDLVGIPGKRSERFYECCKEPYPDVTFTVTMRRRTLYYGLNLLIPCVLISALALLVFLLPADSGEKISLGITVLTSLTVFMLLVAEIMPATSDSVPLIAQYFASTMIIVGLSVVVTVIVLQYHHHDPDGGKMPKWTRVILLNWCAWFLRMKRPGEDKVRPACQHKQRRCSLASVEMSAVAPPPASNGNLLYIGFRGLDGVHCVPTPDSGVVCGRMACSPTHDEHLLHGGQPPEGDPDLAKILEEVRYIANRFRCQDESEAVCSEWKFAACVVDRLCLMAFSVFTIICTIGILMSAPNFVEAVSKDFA", "test": "Real time, high throughput Ca++ imaging assay using FLIPR, QM-7 cells transiently transfected with L270T mutant α7", "type": "cell-based", "method": "(§1) QM-7 cells were transiently transfected with either wild type or L 270T mutant α7 receptor with Lipofectamine PLUS reagent (Invitrogen), in 175 cm^2 flasks. Twenty four hours after the transfection, the cells were collected and re-seeded into a 96-well plate at a density of 40,000 cells/well. Twenty four hours after re-seeding, the cell were incubated with Ca^++ sensitive dye Fluo 3, washed and stimulated with the selective alpha 7 agonist GTS-21. Cellular Ca^++ signal was detected with FLIPR, quantified and plotted against the concentration of GTS-21."}, "[2]": {"biological_target": "T2, wild type α7 receptor (Homo sapiens, UniProt P36544)", "T2 construct": "expressed in transfected cells; host or cells: QM-7 cells (quail), transient transfection with Lipofectamine PLUS", "T2 sequence (P36544 23-502)": "as the sequence (P36544 23-502 L270T) above, with T248L counted along it", "test": "Real time, high throughput Ca++ imaging assay using FLIPR, QM-7 cells transiently transfected with wild type α7", "type": "cell-based", "settings": "QM-7 cells transiently transfected with wild type human α7, Fluo 3 dye, FIG. 1", "method": "as §1"}, "[3]": {"settings": "QM-7 cells transiently transfected with human L270T α7, Fluo 3 dye, FLIPR, FIG. 1"}}, "note": "Where two headings read alike, the source gives them in different places.", "data": [{"molecule": "COc1ccc(/C=C2\\CCCN=C2c2cccnc2)c(OC)c1", "note": "[GTS-21]", "values": [{"measurement": "Cellular Ca++ signal on stimulation", "setting": "[1]; [3]", "result": "dose-dependent increase of Ca^++ signal"}, {"measurement": "Concentration at which the Ca++ signal saturated", "setting": "[1]; [3]", "result": 10, "unit": "µM"}, {"measurement": "Cellular Ca++ signal on stimulation", "setting": "[2]", "result": "failed to give a meaningful signal"}]}, {"molecule": "CCN1C[C@]2(COC(=O)c3ccccc3N3C(=O)C[C@H](C)C3=O)CC[C@H](OC)[C@@]34[C@@H]5C[C@H]6[C@H](OC)[C@@H]5[C@](O)(C[C@@H]6OC)[C@@](O)([C@@H](OC)[C@H]23)[C@@H]14", "note": "[MLA, Methyllycaconitine]", "values": [{"measurement": "Attenuation of signals from epibatidine stimulation", "setting": "[1]", "result": "attenuated"}]}, {"molecule": "Clc1ccc(C2CC3CCC2N3)cn1", "note": "(stereo not drawn) [epibatidine]", "values": [{"measurement": "Responsiveness of cells to agonist (Ca++ signal)", "setting": "[1]; QM-7 cells transiently transfected with the mutant", "result": "responsive"}]}, {"molecule": "CN1CCCC1c1cccnc1", "note": "(stereo not drawn) [nicotine]", "values": [{"measurement": "Responsiveness of cells to agonist (Ca++ signal)", "setting": "[1]", "result": "responsive"}]}]}
